Experiments:
[1] = test system: MOG induced chronic Experimental Autoimmune Encephalomyelitis (EAE) model; test: MOG induced chronic EAE in C57Bl/6 mice; format: in vivo; conditions: for % inhibition 1 (incidence) / % inhibition 2 (MMS) / % inhibition 3 (GMS): vs vehicle
in vivo = conditions: male, C57BL/6, mouse, po, 5 mg/kg
Experimental: For all PO administration groups: 1% MC in water (all PO formulations were made just prior to use).
Fasted overnight and fed 4 hr post dose, free access to water
• 1. For plasma samples: An aliquot of 30 μL plasma sample was added with 150 μL ACN which contains IS (Dexamethasane 40 ng/mL, 5 ng/mL) for protein precipitation. The mixture was vortexed for 2 rain and centrifuged at 12000 rpm for 5 min. The 2 μL supernatant was injected into LC-MS/MS. • 2. For diluted plasma samples: An aliquot of 10 μL plasma sample was added with 90 μL blank plasma to obtain the diluted plasma samples, and the sample dilution factor is 10. An aliquot of 10 μL 10-folder-diluted plasma sample was added with 40 μL blank plasma to obtain the diluted plasma samples, and the sample dilution factor is 50. The exaction procedure for diluted samples was same as those for non-diluted samples.
The animals were restrained manually at the designated time points. Approx. 150 μL of blood samples were taken from the animals into K2EDTA tubes via retro-orbital puncture or cardiac puncture for terminal bleeding under anesthesia with Isoflurane. Blood sample was put on ice and centrifuged at 2000 g for 5 min (4° C.) to obtain plasma sample within 15 minutes. Plasma samples were snap frozen by placing into dry-ice.
The plasma samples were stored at approximately −70° C. until analysis. The backup samples are discarded after two months unless specified. The unused dosing solutions are discarded within 1 week after completion of the study.

[2] = in vivo; cited from earlier work
Multiple Sclerosis = conditions: two phase III trials; cited from earlier work
[3] = Atorvastatin 10 mg/kg BID gavage, Day 1-30
[4] = Atorvastatin 50 mg/kg BID gavage, Day 1-30
[5] = Laquinimod 5 mg/kg/day gavage, Day 1-30
[6] = Laquinimod 25 mg/kg/day gavage, Day 1-30

For `CC(C)c1c(C(=O)Nc2ccccc2)c(-c2ccccc2)c(-c2ccc(F)cc2)n1CC[C@@H](O)C[C@@H](O)CC(=O)O` [Atorvastatin, atorvastatin], the “Duration” value [1, 3] was 18.1 ± 2.1 days, the GMS value [1, 3] was 2.5 ± 0.6 and the Incidence [1, 3] was 15/15. The MMS value [1, 3] was 3.6 ± 0.5, the “Onset” value [1, 3] was 12.4 ± 1.2 days and the “% inhibition 1 (incidence)” value [1, 3] was 0%. For the same compound, the “% inhibition 2 (MMS)” value [1, 3] was 2.7%, the “% inhibition 3 (GMS)” value [1, 3] was 7.4% and the “Duration” value [1, 4] was 17.2 ± 4.9 days. The GMS value [1, 4] was 2.3 ± 0.7, the Incidence [1, 4] was 14/15 and the MMS value [1, 4] was 3.3 ± 1.0. The “Onset” value [1, 4] was 13.8 ± 4.9 days, the “% inhibition 1 (incidence)” value [1, 4] was 6.7% and the “% inhibition 2 (MMS)” value [1, 4] was 10.8%. For the same compound, the “% inhibition 3 (GMS)” value [1, 4] was 14.8% and the Mortality ([1]; mouse, in vivo) was 0/15.

With `CCN(C(=O)c1c(O)c2c(Cl)cccc2n(C)c1=O)c1ccccc1` [Laquinimod] the “Duration” value [1, 5] was 13.5 ± 7.9 days, the GMS value [1, 5] was 1.4 ± 1.0 and the Incidence [1, 5] was 12/15. The MMS value [1, 5] was 2.3 ± 1.3, the Mortality [1, 5] was 0/15 and the “Onset” value [1, 5] was 16.3 ± 7.7 days. For the same compound, the “% inhibition 1 (incidence)” value [1, 5] was 20%, the “% inhibition 2 (MMS)” value [1, 5] was 37.8% and the “% inhibition 3 (GMS)” value [1, 5] was 48.1%. The “Duration” value [1, 6] was 4.1 ± 6.0 days, the GMS value [1, 6] was 0.3 ± 0.6 and the Incidence [1, 6] was 5/15. For the same compound, the MMS value [1, 6] was 0.7 ± 1.0, the Mortality [1, 6] was 0/15 and the “Onset” value [1, 6] was 25.63 ± 7.5 days. The “% inhibition 1 (incidence)” value [1, 6] was 66.7%, the “% inhibition 2 (MMS)” value [1, 6] was 81.1% and the “% inhibition 3 (GMS)” value [1, 6] was 91.9%. The AUCINF (in vivo) was 71465 ng·h/mL, the AUClast (in vivo) was 71302 ng·h/mL and the AUC(0-inf) (in vivo; AUCINF) was 86900 ng·h/mL. It also gave an AUC(0-t) (in vivo; AUClast) of 86700 ng·h/mL, a Cmax (in vivo; Cmax) of 31100 ng/mL and a half-life (in vivo; Terminal t1/2) of 3.01 h. The Tmax (in vivo; Tmax) was 0.5 h, the oral bioavailability [2] was “high oral bioavailability” and the “safety and tolerability profile” value (Multiple Sclerosis) was “favorable safety and tolerability profile”.
